Patent publication US20120009280A1, “METHOD OF REDUCING THE RATE OF DEGRADATION OF A BIOLOGICAL MATERIAL” (Bio-Energy Ingredients Limited, priority 2009, published 2012)

Experiments:
total micro-organism = assay: Total microbial (plate) count of spent brewer's / wet distiller's grains stored at ambient temperature; format: cell-based; settings: for preservation time with total microbial counts <10 cfu/g / preservation time with total microbial counts <100 cfu/g / preservation time with total microbial counts <1000 cfu/g: distiller's grains not de-watered, Examples 16-18
Text: Samples of spent brewer's grains were drawn from the discharge line of a brewery in South Africa. The samples, packed in dry ice in a cold box, were transported over a distance of approximately 40 kilometres to a laboratory. At the laboratory, the samples were thoroughly mixed and initially split into a first portion (Portion 1) and a second portion (Portion 2). The second portion was about twice the size of the first. Portion 1 was left untreated. Material produced from Portion 1 and Portion 2 is designated below using the code “AR” (as received).
Portion 2 was placed on a clean, standard, laboratory screen deck with 1.4 mm apertures supported from below. As much water as possible was manually squeezed out with a clean flat plastic disc and the sample was then manually remixed after the squeezing. The squeezed material was then split into a third portion (Portion 3) and a fourth portion (Portion 4) of approximately the same size. Material produced from Portion 3 and Portion 4 is designated below using the code “SO” (squeezed).
Portion 4 was added to a high speed kitchen food-shredder and shredded for about two minutes. The shredded material was then returned to the 1.4 mm aperture screen and squeezed again, as described above, and manually remixed again after the second squeezing to produce a shredded and squeezed portion (Portion 5). Material produced from Portion 5 is designated below using the code “SH” (shredded).
Samples of Portion 1 (“AR”), Portion 3 (“SO”) and Portion 5 (“SH”) were then delivered to a microbiological testing facility about 15 kilometres from the treatment laboratory. Each was tested for initial total microbial, yeast and mould counts, respectively.
Separate untreated samples were similarly stored under insect-proof screens at ambient temperature for seven days (as shown in Tables 1 and 2). During the trial period the ambient temperature ranged from 11 to 33 degrees C.
After exposure to the environment for seven days, all of the samples were tested at a South African National Accreditation System (SANAS) approved microbiological testing facility. Each was tested for total micro-organism, yeast and mould counts to determine the affect of the various treatments.
Samples of spent brewer's grains were drawn from the discharge line of a brewery in South Africa.
At the laboratory, the samples were thoroughly mixed and initially split into a first portion (Portion 1) and a second portion (Portion 2). Portion 1 was left untreated. A sample of Portion 1, was delivered immediately to a microbiological testing facility about 15 kilometres away from the treatment laboratory and was tested for initial total microbial, yeast and mould counts, respectively.
Samples from Portion 2 were subjected to treatment with varying amounts of a powdered, commercially-available calcium oxide containing approximately 94% calcium oxide (CaO) as shown in Table 32. The treatments varied from 2.5 to 10% (w/w) calcium oxide addition. The samples were stored in batches (according to the calcium oxide treatment) under insect-proof screens at ambient temperature for fifty six days. […] During the trial period the ambient temperature ranged from 10 to 30 degrees C. As this period was the southern hemisphere spring/early summer, the humidity as well as ambient temperatures varied widely.
Samples from each treatment were drawn every seven days. No further calcium oxide treatment or agitation took place after the initial mix. In each case the entire sample was isolated and delivered to the microbiological testing facility.
(§1) In this trial the same source of wet distiller's grains (again with now partial water removal prior to treatment) was treated.
as §1

yeast = assay: Yeast count of spent brewer's / wet distiller's grains stored at ambient temperature; format: cell-based
[1] = pH of suspensions of grain samples in distilled water or PBS; settings: 1% (w/w) in distilled water
Protocol: The untreated sample (A) was compared visually against the corresponding quicklime-treated sample (B).
On Day 7, 10 g amounts of each sample were suspended in either 90 ml PBS or 90 ml sterile distilled water and shaken for 10 minutes. The pH of each suspension was then measured and compared.
On Day 9, 10 g of each sample was suspended in 90 ml PBS and shaken for 10 minutes. The pH was measured.

## [Ca+2].[OH-].[OH-] [(CaOH)2 powder]
Total micro-organism; dose 3.3% (w/w), week 0
  Total plate count: 60 cfu/gram
Total micro-organism; dose 3.3% (w/w), week 1
  Total plate count: 12100 cfu/gram
Total micro-organism; dose 3.3% (w/w), week 4
  Total plate count: 1750 cfu/gram
Total micro-organism; dose 3.3% (w/w), week 5
  Total plate count: 20 cfu/gram
Total micro-organism; dose 3.3% (w/w), week 6
  Total plate count: <10 cfu/gram
Total micro-organism; dose 3.3% (w/w), week 7
  Total plate count: 101000 cfu/gram
Total micro-organism; dose 3.3% (w/w), week 8
  Total plate count: 3.20E+06 cfu/gram
Total micro-organism; dose 6.6% (w/w), week 0
  Total plate count: 70 cfu/gram
Total micro-organism; dose 6.6% (w/w), week 1
  Total plate count: 50 cfu/gram
Total micro-organism; dose 6.6% (w/w), week 2
  Total plate count: 160 cfu/gram
Total micro-organism; dose 6.6% (w/w), week 3
  Total plate count: 1550 cfu/gram
Total micro-organism; dose 6.6% (w/w), week 4
  Total plate count: 290 cfu/gram
Total micro-organism; dose 6.6% (w/w), week 5
  Total plate count: <10 cfu/gram
Total micro-organism; dose 6.6% (w/w), week 6
  Total plate count: <10 cfu/gram
Total micro-organism; dose 6.6% (w/w), week 7
  Total plate count: 5000 cfu/gram
Total micro-organism; dose 6.6% (w/w), week 8
  Total plate count: 960000 cfu/gram
Total micro-organism; dose 6.6% (w/w), week 9
  Total plate count: 1.24E+06 cfu/gram
yeast; dose 3.3% (w/w), week 0
  Yeast Count: <10 cfu/gram
yeast; dose 3.3% (w/w), week 1
  Yeast Count: <10 cfu/gram
yeast; dose 3.3% (w/w), week 2
  Yeast Count: <10 cfu/gram
yeast; dose 3.3% (w/w), week 3
  Yeast Count: <10 cfu/gram
yeast; dose 3.3% (w/w), week 4
  Yeast Count: <10 cfu/gram
yeast; dose 3.3% (w/w), week 5
  Yeast Count: <10 cfu/gram
yeast; dose 3.3% (w/w), week 6
  Yeast Count: <10 cfu/gram
yeast; dose 3.3% (w/w), week 7
  Yeast Count: <10 cfu/gram
yeast; dose 6.6% (w/w), week 0
  Yeast Count: <10 cfu/gram
yeast; dose 6.6% (w/w), week 1
  Yeast Count: <10 cfu/gram
yeast; dose 6.6% (w/w), week 3
  Yeast Count: <10 cfu/gram
yeast; dose 6.6% (w/w), week 4
  Yeast Count: <10 cfu/gram
yeast; dose 6.6% (w/w), week 5
  Yeast Count: <10 cfu/gram
yeast; dose 6.6% (w/w), week 6
  Yeast Count: <10 cfu/gram
yeast; dose 6.6% (w/w), week 7
  Yeast Count: <10 cfu/gram
yeast; dose 6.6% (w/w), week 8
  Yeast Count: <10 cfu/gram
yeast; dose 6.6% (w/w), week 9
  Yeast Count: <10 cfu/gram
[1]; dose 3.3% (w/w), week 0
  pH: 11.78
[1]; dose 3.3% (w/w), week 1
  pH: 11.57
[1]; dose 3.3% (w/w), week 2
  pH: 8.69
[1]; dose 3.3% (w/w), week 3
  pH: 9.08
[1]; dose 3.3% (w/w), week 4
  pH: 8.45
[1]; dose 3.3% (w/w), week 5
  pH: 7.66
[1]; dose 3.3% (w/w), week 6
  pH: 9.32
[1]; dose 3.3% (w/w), week 7
  pH: 7.25
[1]; dose 3.3% (w/w), week 8
  pH: 9.29
[1]; dose 6.6% (w/w), week 0
  pH: 12.90
[1]; dose 6.6% (w/w), week 1
  pH: 12.30
[1]; dose 6.6% (w/w), week 2
  pH: 11.08
[1]; dose 6.6% (w/w), week 3
  pH: 11.78
[1]; dose 6.6% (w/w), week 4
  pH: 9.51
[1]; dose 6.6% (w/w), week 5
  pH: 7.68
[1]; dose 6.6% (w/w), week 6
  pH: 10.61
[1]; dose 6.6% (w/w), week 7
  pH: 7.25
[1]; dose 6.6% (w/w), week 8
  pH: 9.13
[1]; dose 6.6% (w/w), week 9
  pH: 8.84

## [Ca+2].[OH-].[OH-] [calcium hydroxide]
Total micro-organism; dose 3.3% w/w
  preservation time with total microbial counts <10 cfu/g: ≧6 weeks
  preservation time with total microbial counts <100 cfu/g: ≧6 weeks
  preservation time with total microbial counts <1000 cfu/g: ≧6 weeks
Total micro-organism; dose 6.6% w/w
  preservation time with total microbial counts <10 cfu/g: ≧6 weeks
  preservation time with total microbial counts <100 cfu/g: ≧6 weeks
  preservation time with total microbial counts <1000 cfu/g: ≧6 weeks
